Results as given in US9656988B2 (Pharmacyclics LLC, priority 2013, dated 2017).
Like-named read-outs stand apart in the source and are kept apart here.

Molecular target: BTK (Homo sapiens (Human), UniProt Q06187)
Experiment: Btk in vitro inhibitory activity (one of Method A TR-FRET, Method B electrophoretic mobility shift, Method C radiometric filter binding)
Assay type: biochemical
[1] = determined using one of the methods of Example 355a, 355b and 355c, read-out: BTK IC50

BTK, sequence (Q06187 whole entry): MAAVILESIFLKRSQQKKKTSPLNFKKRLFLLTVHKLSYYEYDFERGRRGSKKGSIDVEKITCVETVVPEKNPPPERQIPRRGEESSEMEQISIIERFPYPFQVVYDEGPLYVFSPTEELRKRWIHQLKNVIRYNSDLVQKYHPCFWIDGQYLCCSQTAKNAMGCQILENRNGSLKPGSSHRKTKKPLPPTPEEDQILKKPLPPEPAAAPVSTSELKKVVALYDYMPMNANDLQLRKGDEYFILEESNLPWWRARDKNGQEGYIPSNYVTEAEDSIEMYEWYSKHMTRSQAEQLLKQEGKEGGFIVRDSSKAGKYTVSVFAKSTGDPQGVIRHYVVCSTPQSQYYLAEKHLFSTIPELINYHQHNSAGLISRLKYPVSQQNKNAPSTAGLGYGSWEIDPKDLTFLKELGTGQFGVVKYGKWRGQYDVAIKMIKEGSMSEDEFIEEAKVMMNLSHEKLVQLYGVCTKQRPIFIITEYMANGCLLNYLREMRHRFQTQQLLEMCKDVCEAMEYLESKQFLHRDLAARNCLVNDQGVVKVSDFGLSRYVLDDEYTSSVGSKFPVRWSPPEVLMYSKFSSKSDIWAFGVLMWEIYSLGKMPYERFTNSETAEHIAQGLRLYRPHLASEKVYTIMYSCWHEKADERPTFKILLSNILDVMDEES

Row | SMILES | IC50 [1] [nM] | IC50 (read-out: Btk (IC50)) [nM] | IC50 (Btk (IC50)) [nM] | IC50 [nM]
1 | C[C@@H]1[C@H](NC(=O)N(C)C)CCCN1c1cnc(C(N)=O)c(Nc2ccc(C3(C#N)CCN(C4CCCC4)CC3)cc2)n1 [Example 250, 3-(4-(4-cyano-1-cyclopentylpiperidin-4-yl)phenylamino)-5-((2R,3R)-3-(3,3-dimethylureido)-2-methylpiperidin-1-yl)pyrazine-2-carboxamide] | < 10 | < 10 | – | –
2 | C[C@@H]1[C@H](NC(=O)N(C)C)CCCN1c1cnc(C(N)=O)c(Nc2ccc(C3(C(N)=O)CCN(C4CCCC4)CC3)cc2)n1 [Example 251, 3-(4-(4-carbamoyl-1-cyclopentylpiperidin-4-yl)phenylamino)-5-((2R,3R)-3-(3,3-dimethylureido)-2-methylpiperidin-1-yl)pyrazine-2-carboxamide] | – | < 10 | – | –
3 | C[C@@H]1[C@H](N2CCN(C)C2=O)CCCN1c1cnc(C(N)=O)c(Nc2ccc(C3(C)CCNCC3)cc2)n1 [Example 252, 5-((2R,3R)-2-methyl-3-(3-methyl-2-oxoimidazolidin-1-yl)piperidin-1-yl)-3-(4-(4-methylpiperidin-4-yl)phenylamino)pyrazine-2-carboxamide] | < 10 | – | < 10 | –
4 | C[C@@H]1[C@H](N2CCN(C)C2=O)CCCN1c1cnc(C(N)=O)c(Nc2ccc(C3(C)CCN(C4CCCC4)CC3)cc2)n1 [Example 253, 3-(4-(1-cyclopentyl-4-methylpiperidin-4-yl)phenylamino)-5-((2R,3R)-2-methyl-3-(3-methyl-2-oxoimidazolidin-1-yl)piperidin-1-yl)pyrazine-2-carboxamide] | < 10 | – | – | –
5 | CCC(=O)N1CCC(C)(c2ccc(Nc3nc(N4CCC[C@@H](N5CCN(C)C5=O)[C@H]4C)cnc3C(N)=O)cc2)CC1 [Example 255, 3-(4-(4-methyl-1-propionylpiperidin-4-yl)phenylamino)-5-((2R,3R)-2-methyl-3-(3-methyl-2-oxoimidazolidin-1-yl)piperidin-1-yl)pyrazine-2-carboxamide] | < 10 | < 10 | – | –
6 | CN1CCN([C@@H]2CCCN(c3cnc(C(N)=O)c(Nc4ccc(C5CCN(C6CCCC6)CC5)cc4)n3)C2)C1=O [Example 256, (R)-3-(4-(1-cyclopentylpiperidin-4-yl)phenylamino)-5-(3-(3-methyl-2-oxoimidazolidin-1-yl)piperidin-1-yl)pyrazine-2-carboxamide] | < 10 | < 10 | – | –
7 | CCN1CCC(c2ccc(Nc3nc(N4CCC[C@@H](N5CCN(C)C5=O)C4)cnc3C(N)=O)cc2)CC1 [Example 257, (R)-3-(4-(1-ethylpiperidin-4-yl)phenylamino)-5-(3-(3-methyl-2-oxoimidazolidin-1-yl)piperidin-1-yl)pyrazine-2-carboxamide] | < 10 | < 10 | – | –
8 | CN1CCN([C@@H]2CCCN(c3cnc(C(N)=O)c(Nc4ccc(C5CCN(C6CCC6)CC5)cc4)n3)C2)C1=O [Example 258] | < 10 | – | – | –
9 | CN1CCN([C@@H]2CCCN(c3cnc(C(N)=O)c(Nc4ccc(C5CCN(C6CC6)CC5)cc4)n3)C2)C1=O [Example 259, (R)-3-(4-(1-cyclopropylpiperidin-4-yl)phenylamino)-5-(3-(3-methyl-2-oxoimidazolidin-1-yl)piperidin-1-yl)pyrazine-2-carboxamide] | < 10 | < 10 | – | –
10 | CN1CCN([C@@H]2CCCN(c3cnc(C(N)=O)c(Nc4ccc(N5CCS(=O)(=O)CC5)cc4)n3)C2)C1=O [Example 260, (R)-5-(3-(3-methyl-2-oxoimidazolidin-1-yl)piperidin-1-yl)-3-(4-(1,1-dioxothiomorpholino)phenylamino)pyrazine-2-carboxamide] | < 10 | < 10 | – | –
11 | CN1CCN([C@@H]2CCCN(c3cnc(C(N)=O)c(Nc4ccccc4)n3)C2)C1=O [Example 261, (R)-5-(3-(3-methyl-2-oxoimidazolidin-1-yl)piperidin-1-yl)-3-(phenylamino)pyrazine-2-carboxamide] | 10 to 100 | – | – | 10 to 100
12 | CN1CCN([C@@H]2CCCN(c3cnc(C(N)=O)c(Nc4ccc(C5(C(F)(F)F)CC5)cc4)n3)C2)C1=O [Example 262, (R)-5-(3-(3-methyl-2-oxoimidazolidin-1-yl)piperidin-1-yl)-3-(4-(1-(trifluoromethyl)cyclopropyl)phenylamino)pyrazine-2-carboxamide] | 10 to 100 | – | – | –
13 | CN1CCN([C@@H]2CCCN(c3cnc(C(N)=O)c(Nc4ccc(C5(C)CCN(C6CC6)CC5)cc4)n3)C2)C1=O [Example 263, (R)-3-(4-(1-cyclopropyl-4-methylpiperidin-4-yl)phenylamino)-5-(3-(3-methyl-2-oxoimidazolidin-1-yl)piperidin-1-yl)pyrazine-2-carboxamide] | – | < 10 | – | –
14 | CC(C)N1CCC(C)(c2ccc(Nc3nc(N4CCC[C@@H](N5CCN(C)C5=O)C4)cnc3C(N)=O)cc2)CC1 [Example 264, (R)-3-(4-(1-isopropyl-4-methylpiperidin-4-yl)phenylamino)-5-(3-(3-methyl-2-oxoimidazolidin-1-yl)piperidin-1-yl)pyrazine-2-carboxamide] | – | < 10 | – | –
15 | CN1CCN([C@@H]2CCCN(c3cnc(C(N)=O)c(Nc4ccc(C5(C)CCN(C6CCCC6)CC5)cc4)n3)C2)C1=O [Example 267, (R)-3-(4-(1-cyclopentyl-4-methylpiperidin-4-yl)phenylamino)-5-(3-(3-methyl-2-oxoimidazolidin-1-yl)piperidin-1-yl)pyrazine-2-carboxamide] | < 10 | < 10 | – | –
16 | CN1CCN([C@@H]2CCCN(c3cnc(C(N)=O)c(Nc4ccc(C5(C)CCN(C=O)CC5)cc4)n3)C2)C1=O [Example 268, (R)-3-(4-(1-formyl-4-methylpiperidin-4-yl)phenylamino)-5-(3-(3-methyl-2-oxoimidazolidin-1-yl)piperidin-1-yl)pyrazine-2-carboxamide] | < 10 | < 10 | – | –
17 | CCC(=O)N1CCC(C)(c2ccc(Nc3nc(N4CCC[C@@H](N5CCN(C)C5=O)C4)cnc3C(N)=O)cc2)CC1 [Example 269, (R)-3-(4-(4-methyl-1-propionylpiperidin-4-yl)phenylamino)-5-(3-(3-methyl-2-oxoimidazolidin-1-yl)piperidin-1-yl)pyrazine-2-carboxamide] | < 10 | < 10 | – | –
18 | CN1CCN([C@@H]2CCCN(c3cnc(C(N)=O)c(Nc4ccc(C5(C)CCN(C(=O)C6CC6)CC5)cc4)n3)C2)C1=O [Example 270, (R)-3-(4-(1-(cyclopropanecarbonyl)-4-methylpiperidin-4-yl)phenylamino)-5-(3-(3-methyl-2-oxoimidazolidin-1-yl)piperidin-1-yl)pyrazine-2-carboxamide] | < 10 | < 10 | – | –
19 | CN1CCN([C@@H]2CCCN(c3cnc(C(N)=O)c(Nc4ccc(C5(C#N)CCN(C6CCCC6)CC5)cc4)n3)C2)C1=O [Example 271, (R)-3-(4-(4-cyano-1-cyclopentylpiperidin-4-yl)phenylamino)-5-(3-(3-methyl-2-oxoimidazolidin-1-yl)piperidin-1-yl)pyrazine-2-carboxamide] | – | < 10 | – | –
20 | CN1CCN([C@@H]2CCCN(c3cnc(C(N)=O)c(Nc4ccc(C5(C(N)=O)CCN(C6CCCC6)CC5)cc4)n3)C2)C1=O [Example 272, (R)-3-(4-(4-carbamoyl-1-cyclopentylpiperidin-4-yl)phenylamino)-5-(3-(3-methyl-2-oxoimidazolidin-1-yl)piperidin-1-yl)pyrazine-2-carboxamide] | – | < 10 | – | –
21 | CN1CCN([C@@H]2CCCN(c3cnc(C(N)=O)c(Nc4ccc(C5(C#N)CCN(C6CCC6)CC5)cc4)n3)C2)C1=O [Example 273, (R)-3-(4-(4-cyano-1-cyclobutylpiperidin-4-yl)phenylamino)-5-(3-(3-methyl-2-oxoimidazolidin-1-yl)piperidin-1-yl)pyrazine-2-carboxamide] | < 10 | < 10 | – | –
22 | NC(=O)c1ncc(N2CCC[C@@H](N3CCNC3=O)C2)nc1Nc1ccc(C2CCN(C3CCCC3)CC2)cc1 [Example 274, (R)-3-(4-(1-cyclopentylpiperidin-4-yl)phenylamino)-5-(3-(2-oxoimidazolidin-1-yl)piperidin-1-yl)pyrazine-2-carboxamide] | < 10 | < 10 | – | –
23 | CCN1CCN([C@@H]2CCCN(c3cnc(C(N)=O)c(Nc4ccc(C5CCN(C6CCCC6)CC5)cc4)n3)C2)C1=O [Example 275, (R)-3-(4-(1-cyclopentylpiperidin-4-yl)phenylamino)-5-(3-(3-ethyl-2-oxoimidazolidin-1-yl)piperidin-1-yl)pyrazine-2-carboxamide] | < 10 | < 10 | – | –
24 | CCN1CCN([C@@H]2CCCN(c3cnc(C(N)=O)c(Nc4ccc(C5(C)CCN(C6CC6)CC5)cc4)n3)C2)C1=O [Example 276, (R)-3-(4-(1-cyclopropyl-4-methylpiperidin-4-yl)phenylamino)-5-(3-(3-ethyl-2-oxoimidazolidin-1-yl)piperidin-1-yl)pyrazine-2-carboxamide] | < 10 | < 10 | – | –
25 | NC(=O)c1ncc(N2CCC[C@@H](N3CCN(C4CC4)C3=O)C2)nc1Nc1ccc(C2CCN(C3CCCC3)CC2)cc1 [Example 277, (R)-3-(4-(1-cyclopentylpiperidin-4-yl)phenylamino)-5-(3-(3-cyclopropyl-2-oxoimidazolidin-1-yl)piperidin-1-yl)pyrazine-2-carboxamide] | < 10 | < 10 | – | –
26 | NC(=O)c1ncc(N2CCC[C@@H](N3CCN(C4CC4)C3=O)C2)nc1Nc1ccc(C2CCN(C3CCC3)CC2)cc1 [Example 278, (R)-3-(4-(1-cyclobutylpiperidin-4-yl)phenylamino)-5-(3-(3-cyclopropyl-2-oxoimidazolidin-1-yl)piperidin-1-yl)pyrazine-2-carboxamide] | < 10 | < 10 | – | –
27 | CC1(c2ccc(Nc3nc(N4CCC[C@@H](N5CCN(C6CC6)C5=O)C4)cnc3C(N)=O)cc2)CCN(C2CC2)CC1 [Example 279, (R)-5-(3-(3-cyclopropyl-2-oxoimidazolidin-1-yl)piperidin-1-yl)-3-(4-(1-cyclopropyl-4-methylpiperidin-4-yl)phenylamino)pyrazine-2-carboxamide] | – | < 10 | – | –
